Patent publication US20260265230A1, “FLUORESCENT AND SELF-ASSEMBLING UREIDOPYRIMIDINONE CONJUGATES AND PREPARATION THEREOF” (COUNCIL OF SCIENTIFIC AND INDUSTRIAL RESEARCH AN INDIAN …, priority 2022, published 2026)

Experiment: Fluorescent studies (absorption and emission spectra) in DMSO
Type: physicochemical
Details: concentration 1×10^−5 M; for maximum absorption wavelength (λabs) / maximum emission wavelength (λems): FIG. 1
Excerpt: FIG. 1 represents absorption and emission spectra of (a) coumarin-UpyFlAA (6) and (b) hydroquinone-UPy-FlAA(10), in accordance with an implementation of the present disclosure.

In the case of `COc1ccc(OC)c(-c2cc(=O)nc(NC(=O)NCCCC[C@H](NC(=O)OC(C)(C)C)C(=O)O)[nH]2)c1` [Compound 10, N2-(tert-butoxycarbonyl)-N6-((6-(2,5-dimethoxyphenyl)-4-oxo-1,4-dihydropyrimidin-2-yl)carbamoyl)lysine], the “fluorescence (relative fluorescence intensity)” value is reported as “high level of fluorescence”, the “maximum absorption wavelength (λabs)” value is reported as 310 nm and the “maximum emission wavelength (λems)” value is reported as 421 nm.

In the case of `CCN(CC)c1ccc2cc(-c3cc(=O)[nH]c(NC(=O)NCCCC[C@H](NC(=O)OC(C)(C)C)C(=O)O)n3)c(=O)oc2c1` [Compound 6, N2-(tert-butoxycarbonyl)-N6-((4-(7-(diethylamino)-2-oxo-2H-chromen-3-yl)-6-oxo-1,6-dihydropyrimidin-2-yl)carbamoyl)lysine], the “fluorescence (relative fluorescence intensity)” value is reported as “high level of fluorescence”, the “maximum absorption wavelength (λabs)” value is reported as 437 nm and the “maximum emission wavelength (λems)” value is reported as 487 nm.
